Data reported in patent publication US20050123613A1, “Activated carbon infusion solution, preparation method therefor and use thereof for the manufacture of drug for treating cancer” (priority 2003, published 2005).

Columns and labels:
[1] = Measured adsorption values of drugs on activated carbon; assay type: physicochemical; details: specific surface area 6800M^2/g
[2] = Measured adsorption values of drugs on hydroxyl-amino carbon; assay type: physicochemical; details: specific surface area 6800M^2/g
cancer patients = assay: Experimental clinical cases, intravenous injection; assay type: in vivo, human; details: Case 4, breast cancer with systematic metastasis, before activated carbon treatment

Molecule	Adsorption value on activated carbon [1] [mg]	Adsorption value on hydroxyl-amino carbon [2] [mg]	Analgesia (cancer patients)
O=c1[nH]cc(Cl)c(=O)[nH]1 [5-chlorouracil]	75	102	–
O=c1[nH]cc(F)c(=O)[nH]1 [5-fluorouracil, reference compound]	–	49	–
O=P1(N(CCCl)CCCl)NCCCO1 (stereo not drawn) [CTX, reference compound]	98	136	–
S=c1nc[nH]c2nc[nH]c12 [Example 6-MP, 6-MP, reference compound]	220	304	–
CN1CC[C@]23c4c5ccc(O)c4O[C@H]2[C@@H](O)C=C[C@H]3[C@H]1C5 [Morphine]	–	–	of no effect
Nc1ncnc2nc[nH]c12 [adenine]	213	260	–
ClC(Cl)Cl [chloroform]	10	4	–
N.N.[Cl][Pt][Cl] [cisplatin, reference compound]	995	1105	–
Nc1nc2nc[nH]c2c(=O)[nH]1 [guanine]	331	378	–
Cc1c[nH]c(=O)[nH]c1=O [thymine]	5	17	–
O=c1cc[nH]c(=O)[nH]1 [uracil]	33	51	–
ferroporphyrin	283	311	–
thymopeptide	90	127	–
